The source of these data is US12448632B2, “Guanidine degradation enzyme and methods of use” (Alliance for Sustainable Energy, LLC, priority 2020, dated 2025).

One data set has as its system GD7942 (+sll1077). The data set is described as follows: Guanidine tolerance test, cell growth. The format is cell-based, Synechococcus elongatus PCC 7942. The protocol: Guanidine tolerance and degradation test. […] For guanidine degradation test, cyanobacterial strains were grown in 10 mL mBG11 free of nitrate while supplemented with 50 mM NaHCO3 and 5 mM or 1 mM guanidine chloride, under constant light of 50 μE m^−2 s^−1 on a rotary shaker at 150 rpm and 30° C. Every day, 1 mL of culture was sampled for reading OD730 and then transferred into an Eppendorf tube and centrifuged at 17000×g at room temperature for 2 min. The supernatants were stored at −20° C. for later analysis of guanidine.

For the next data set, the system named is Δsll1077 strain (PB805W). The experiment in a line: Growth in nitrate-deprived medium with guanidine. The format is cell-based, Synechocystis sp. PCC 6803. Conditions: guanidine-supplemented (5 mM) versus nitrogen-deprived conditions. On the procedure:
(§1) Guanidine tolerance and degradation test. For guanidine tolerance test, cyanobacterial strains were grown in 20 mL mBG11 medium supplemented with 0-1 mM guanidine and 50 mM NaHCO3. For guanidine degradation test, cyanobacterial strains were grown in 10 mL mBG11 free of nitrate while supplemented with 50 mM NaHCO3 and 5 mM or 1 mM guanidine chloride, under constant light of 50 μE m^−2 s^−1 on a rotary shaker at 150 rpm and 30° C. Every day, 1 mL of culture was sampled for reading OD730 and then transferred into an Eppendorf tube and centrifuged at 17000×g at room temperature for 2 min. The supernatants were stored at −20° C. for later analysis of guanidine.

The subject of data set [1] is Synechococcus 7942. The format is cell-based, Synechococcus elongatus PCC 7942. The protocol:
as §1

Data set [2] deals with Synechococcus 7942. The data set is described as follows: Cell growth with urea in culture medium. The format is cell-based, Synechococcus elongatus PCC 7942. Conditions: 5 mM urea; nitrate-deprived or nitrate-replete conditions.

Turning to `N=C(N)N` [guanidine], the cell growth entry in the data set with GD7942 (+sll1077) (1 mM guanidine in culture medium) is “not apparently repressed”; in the data set on GD7942 (+sll1077) (2 mM guanidine in culture medium) it was “only slightly inhibited”; in the data set on Δsll1077 strain (PB805W) it was “severely inhibited”. For the same molecule, the “guanidine concentration at which cell growth was already inhibited” value in the data set with Synechococcus 7942 [1] is 0.3 mM.
Regarding `NC(N)=O` [urea], in the data set on Synechococcus 7942 [2], the “impact on cell growth” value is reported as “did not show any apparent impact on the cell growth”.
